The text below walks through data of ChEMBL document CHEMBL1201862, “PubChem BioAssay data set” (2004).

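Grown in 96-well plates, cells were treated for 48 hours with each compound at five concentrations. Insufficient inhibition: endpoint recorded as highest concentration tested. GI50 = concentration required for 50% inhibition of growth.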 Active and inactive are the calls of the source. Rule as the data show it: active = GI50 up to about 1.1 µM and inactive = higher.

For orientation: GI50 means the concentration that inhibits growth by half.

Test systems include NCI-H23; OVCAR-3; EKVX; SF-295; IGROV-1; SK-OV-3; RPMI-8226; A549; PC-3; UACC-62; MDA-MB-231; SK-MEL-2; NCI/ADR-RES; CAKI-1; Malme-3M; NCI-H460; M14; HCC 2998; Hs-578T; LOX IMVI.
Assay in all cases: DTP human tumour cell line panel, 48 h

In the case of `O=C(N(O)c1ccccc1Cl)C(O)(c1ccccc1)c1ccccc1`, the GI50 was > 100 µM (inactive) with NCI-H23; 43.5 µM (inactive) with OVCAR-3; > 100 µM (inactive) in the assay on EKVX; 30.4 µM (inactive) in the assay with SF-295; 78.9 µM (inactive) with IGROV-1; > 100 µM (inactive) in the assay with SK-OV-3. In addition, the GI50 with RPMI-8226 is 23.8 µM (inactive); in the assay on A549 it was 71.1 µM (inactive); in the assay on PC-3 it was 91.6 µM (inactive); with UACC-62, 45.8 µM (inactive); with MDA-MB-231 it was > 100 µM (inactive); in the assay on SK-MEL-2, > 100 µM (inactive). For the same compound, the GI50 with NCI/ADR-RES is 63.8 µM (inactive); in the assay on CAKI-1, 30.2 µM (inactive); in the assay on Malme-3M, > 100 µM (inactive); in the assay on NCI-H460, > 100 µM (inactive); with M14, 54.1 µM (inactive); with HCC 2998, 35.4 µM (inactive). Moreover, the GI50 in the assay with Hs-578T is 42.5 µM (inactive); in the assay with LOX IMVI it was 49.3 µM (inactive).

`COc1ccc(-c2csc(-n3c(-c4ccccc4)nc4c(Br)cc(Br)cc4c3=O)n2)cc1`: the GI50 with NCI-H23 was 14.4 µM (inactive); in the assay with OVCAR-3, 25.2 µM (inactive); with EKVX it was 4.52 µM (inactive); with SF-295, 25.2 µM (inactive); with IGROV-1 it was 2.92 µM (inactive); in the assay with SK-OV-3, 28.1 µM (inactive). Moreover, the GI50 in the assay with RPMI-8226 is 7.74 µM (inactive); with A549, 25.5 µM (inactive); in the assay with PC-3, 25.8 µM (inactive); in the assay on UACC-62, 28.5 µM (inactive); with MDA-MB-231, 28.5 µM (inactive); in the assay with SK-MEL-2, 47.2 µM (inactive). Further, the GI50 in the assay on NCI/ADR-RES was 19.6 µM (inactive); with CAKI-1, 35.7 µM (inactive); in the assay with Malme-3M it was 26 µM (inactive); in the assay with NCI-H460, 34.2 µM (inactive); in the assay on M14, 29.4 µM (inactive); with HCC 2998 it was 28.1 µM (inactive). Also, the GI50 is 41 µM (inactive) in the assay with Hs-578T and 29.9 µM (inactive) in the assay with LOX IMVI.

Consider `CC1=NN2C(=N)/C(=C/c3ccccc3)C(=O)N=C2S1`, for which the GI50 in the assay with NCI-H23, in the assay on OVCAR-3, in the assay with EKVX, in the assay with SF-295, in the assay on IGROV-1 and with SK-OV-3 was > 100 µM (inactive) throughout. Besides, the GI50 in the assay on RPMI-8226, with A549, in the assay on PC-3, in the assay on UACC-62, in the assay on MDA-MB-231 and in the assay on SK-MEL-2 was > 100 µM (inactive) throughout. The GI50 in the assay on NCI/ADR-RES was > 33.1 µM (inactive); in the assay with CAKI-1 it was > 100 µM (inactive); in the assay with Malme-3M, > 100 µM (inactive); in the assay on NCI-H460 it was > 100 µM (inactive); with M14, > 100 µM (inactive); with HCC 2998 it was > 100 µM (inactive). For the same compound, the GI50 in the assay on Hs-578T and in the assay with LOX IMVI was > 100 µM (inactive) each time.

For the compound `[N-]=[N+]=NC1C(O)C(CO)OC1n1cnc2c(N)ncnc21` (stereo not given), the GI50 in the assay on NCI-H23 is 30.5 µM (inactive); in the assay on OVCAR-3 it was > 100 µM (inactive); with EKVX it was > 100 µM (inactive); with SF-295 it was 44.1 µM (inactive); in the assay with IGROV-1, 92.7 µM (inactive); with SK-OV-3, 87.5 µM (inactive). For the same compound, the GI50 in the assay with RPMI-8226 was 45.8 µM (inactive); in the assay on A549, 47.5 µM (inactive); in the assay on PC-3, 74.3 µM (inactive); in the assay with UACC-62, 99.5 µM (inactive); in the assay on MDA-MB-231, > 100 µM (inactive); in the assay on SK-MEL-2, > 100 µM (inactive). In addition, the GI50 in the assay with NCI/ADR-RES is 27.1 µM (inactive); in the assay on CAKI-1 it was 40.9 µM (inactive); in the assay with Malme-3M, > 100 µM (inactive); with NCI-H460 it was 6.34 µM (inactive); with M14 it was 36.6 µM (inactive); in the assay on HCC 2998, 29.7 µM (inactive). Further, the GI50 in the assay on Hs-578T is > 100 µM (inactive); with LOX IMVI it was 24.7 µM (inactive).

As to `CCC(c1ccc2cc(O)ccc2c1)C(C)(C)C(=O)O` (stereo not given), the GI50 in the assay on NCI-H23, in the assay with OVCAR-3, in the assay with EKVX, in the assay with SF-295, in the assay on IGROV-1 and in the assay with SK-OV-3 was > 100 µM (inactive) each time. Further, the GI50 with RPMI-8226, in the assay on A549, with PC-3, in the assay with UACC-62, in the assay on MDA-MB-231 and in the assay with SK-MEL-2 was > 100 µM (inactive) throughout. For the same compound, the GI50 in the assay on NCI/ADR-RES, in the assay on CAKI-1, in the assay with Malme-3M, in the assay with NCI-H460, in the assay with M14 and in the assay on HCC 2998 was > 100 µM (inactive) each time. Also, the GI50 in the assay on Hs-578T and in the assay on LOX IMVI was > 100 µM (inactive) each time.

For the compound `O=C1/C(=C/c2ccc(Cl)cc2)CCCc2ccccc21`, the GI50 in the assay on NCI-H23 is 23.7 µM (inactive); in the assay with OVCAR-3, 18.9 µM (inactive); in the assay with EKVX, 14.8 µM (inactive); in the assay on SF-295 it was 16.9 µM (inactive); in the assay on IGROV-1, 18.2 µM (inactive); with SK-OV-3, 43.1 µM (inactive). In addition, the GI50 in the assay with RPMI-8226 was 12.8 µM (inactive); with A549, 21.3 µM (inactive); in the assay on PC-3, 19.6 µM (inactive); in the assay with UACC-62, 14.5 µM (inactive); in the assay with MDA-MB-231, 19.6 µM (inactive); in the assay on SK-MEL-2, 14.7 µM (inactive). For the same compound, the GI50 is 15.1 µM (inactive) in the assay on NCI/ADR-RES; 39.4 µM (inactive) in the assay with CAKI-1; 13.6 µM (inactive) with Malme-3M; 17.7 µM (inactive) with NCI-H460; 15.6 µM (inactive) in the assay on M14; 22.2 µM (inactive) with HCC 2998. For the same compound, the GI50 in the assay on Hs-578T was 11.7 µM (inactive); in the assay on LOX IMVI, 17.3 µM (inactive).

`Cc1ccc(NCCN(C)C)c2c(=O)c3cc(O)ccc3oc12`: the GI50 was 12.6 µM (inactive) in the assay with NCI-H23; 16.5 µM (inactive) in the assay on OVCAR-3; 15.7 µM (inactive) with EKVX; 10.9 µM (inactive) in the assay on SF-295; 12.3 µM (inactive) in the assay with IGROV-1; 13.4 µM (inactive) in the assay with SK-OV-3. Besides, the GI50 with RPMI-8226 is 5.08 µM (inactive); with A549, 6.25 µM (inactive); with PC-3, 11.8 µM (inactive); in the assay on UACC-62, 10.1 µM (inactive); with MDA-MB-231 it was 9.04 µM (inactive); with SK-MEL-2, 20.6 µM (inactive). Further, the GI50 is 10.6 µM (inactive) in the assay with NCI/ADR-RES; 10.6 µM (inactive) in the assay on CAKI-1; 13.9 µM (inactive) with Malme-3M; 0.889 µM (active) in the assay on NCI-H460; 12.4 µM (inactive) with M14; 11.9 µM (inactive) in the assay on HCC 2998. For the same compound, the GI50 was 6.41 µM (inactive) in the assay on Hs-578T and 9.53 µM (inactive) in the assay on LOX IMVI.

For `N=C(N)N/N=C/c1c(-c2ccc(Cl)c([N+](=O)[O-])c2)nc2sccn12`, the GI50 in the assay on NCI-H23 is 1.85 µM (inactive); with OVCAR-3, 1.34 µM (inactive); in the assay with EKVX, 1.85 µM (inactive); with SF-295, 1.75 µM (inactive); in the assay on IGROV-1 it was 1.72 µM (inactive); with SK-OV-3, 1.78 µM (inactive). The GI50 with RPMI-8226 is 2.06 µM (inactive); in the assay with A549 it was 1.75 µM (inactive); with PC-3, 1.65 µM (inactive); with UACC-62, 1.8 µM (inactive); in the assay on MDA-MB-231 it was 1.74 µM (inactive); with SK-MEL-2, 1.85 µM (inactive). Also, the GI50 is > 100 µM (inactive) in the assay on NCI/ADR-RES; 1.69 µM (inactive) with CAKI-1; 1.91 µM (inactive) in the assay on Malme-3M; 1.79 µM (inactive) in the assay with NCI-H460; 1.8 µM (inactive) in the assay with M14; 1.6 µM (inactive) in the assay with HCC 2998. Also, the GI50 in the assay on Hs-578T was 2.05 µM (inactive); with LOX IMVI, 2.22 µM (inactive).

With `OC(C/C(=N\N1CCCCC1)c1cccs1)(C(F)(F)F)C(F)(F)F`, the GI50 in the assay on NCI-H23, in the assay with OVCAR-3, in the assay on EKVX, in the assay on SF-295, with IGROV-1 and in the assay with SK-OV-3 was > 10 µM (inactive) throughout. Further, the GI50 in the assay with RPMI-8226, with A549, in the assay with PC-3, in the assay with UACC-62, in the assay on MDA-MB-231 and with SK-MEL-2 was > 10 µM (inactive) each time. Also, the GI50 in the assay with NCI/ADR-RES, with CAKI-1, in the assay on Malme-3M, in the assay on NCI-H460, in the assay on M14 and in the assay on HCC 2998 was > 10 µM (inactive) in each case. Besides, the GI50 in the assay with Hs-578T and in the assay with LOX IMVI was > 10 µM (inactive) in each case.

Regarding `O=c1[nH]nc(-c2ccccc2)n1/N=C/c1c[nH]c2ccccc12`, the GI50 was > 100 µM (inactive) in the assay on NCI-H23; > 100 µM (inactive) in the assay with OVCAR-3; > 100 µM (inactive) in the assay with EKVX; > 100 µM (inactive) with SF-295; 69.5 µM (inactive) in the assay on IGROV-1; > 100 µM (inactive) in the assay with SK-OV-3. In addition, the GI50 is > 100 µM (inactive) in the assay on RPMI-8226; > 100 µM (inactive) with A549; > 100 µM (inactive) with PC-3; 96.8 µM (inactive) with UACC-62; > 100 µM (inactive) in the assay on MDA-MB-231; > 100 µM (inactive) in the assay on SK-MEL-2. Moreover, the GI50 in the assay on NCI/ADR-RES, in the assay with CAKI-1, in the assay with Malme-3M, in the assay with NCI-H460, in the assay on M14 and in the assay with HCC 2998 was > 100 µM (inactive) in each case. In addition, the GI50 with Hs-578T is > 100 µM (inactive); with LOX IMVI, 58.7 µM (inactive).
